Measured values reported in patent US20250188092A1, “RIFAMYCIN ANALOGS” (THE REGENTS OF THE UNIVERSITY OF MICHIGAN, priority 2021, published 2025).
≈ marks a conversion by molar mass, not a printed value.

How the values were obtained:
[1] = system: non-replicating cultures of M. tuberculosis H37Rv transformed with lux ABCDE; assay: microbe, parasite or virus in culture; format: cell-based, Mycobacterium tuberculosis; conditions: for MIC90 / MIC: Mycobacterium tuberculosis, H37RV, ≥90% reduction in luminescence, read-out: MIC90 LORA; for MIC90 LORA/MABA: ratio of LORA MIC90 to MABA MIC90
[2] = system: M. tuberculosis transformed with luxABCDE; assay: microbe, parasite or virus in culture; format: cell-based, Mycobacterium tuberculosis; conditions: for MBC: Mycobacterium tuberculosis, 168 h, ≥99% reduction in luminescence, read-out: MBC99 Day 7 (Lux Assay) MBC

Compound: CCOC(=O)N1CCN(c2cc(C)c3nc4c5c6c7c(C)c(O)c5c(=O)c(c-4oc3c2)NC(=O)/C(C)=C\C=C\[C@H](C)[C@H](O)[C@@H](C)[C@@H](O)[C@@H](C)[C@H](OC(C)=O)[C@H](C)[C@@H](OC)/C=C/O[C@@](C)(O7)C6=O)CC1 [Compound 26h, Ethyl 4-[(7S,9E,11S,12R,13S,14R,15R,16R,17S,18S,19E,21Z)-13-(acetyloxy)-2,15,17-trihydroxy-11-methoxy-3,7,12,14,16,18,22,32-octamethyl-6,23,37-trioxo-8,27,38-trioxa-24,34-diazahexacyclo[23.11.1.1^4,7.0^5,36.0^26,35.0^28,33]octatriaconta-1(36)2,4,9,19,21,25,28,30,32,34-undecaen-30-yl]piperazine-1-carboxylate]
- MIC90 LORA Rel to RMP [1]: 0.05
- MIC90 [1]: 0.0094 µM (≈ 0.00898 µg/mL)
- MIC90 LORA/MABA [1]: 1.9
- MBC99 Day 7 (Lux Assay) MBC Rel to RMP [2]: 0.06
- MBC [2]: 0.028 µM (≈ 0.0267 µg/mL)

Compound: CO[C@H]1/C=C/O[C@@]2(C)Oc3c(C)c(O)c4c(=O)c(c5oc6cc(N7CCN(C8CCN(C)CC8)CC7)cc(OCc7ccc(CN8CCOCC8)cc7)c6nc-5c4c3C2=O)NC(=O)/C(C)=C\C=C\[C@H](C)[C@H](O)[C@@H](C)[C@@H](O)[C@@H](C)[C@H](OC(C)=O)[C@@H]1C [Compound 17h, (7S,9E,11S,12R,13S,14R,15R,16R,17S,18S,19E,21Z)-2,15,17-trihydroxy-11-methoxy-3,7,12,14,16,18,22-heptamethyl-30-[4-(1-methylpiperidin-4-yl)piperazin-1-yl]-32-{[4-(morpholin-4-ylmethyl)phenyl]methoxy}-6,23,37-trioxo-8,27,38-trioxa-24,34-diazahexacyclo-[23.11.1.1^4,7.0^5,36.0^26,35.0^28,33]octatriaconta-1,3,5(36)9,19,21,25,28,30,32,34-undecaen-13-yl acetate]
- MIC90 LORA Rel to RMP [1]: 12
- MIC90 [1]: 0.318 µM
- MIC90 LORA/MABA [1]: 9.0
- MBC [2]: > 0.1 µM

Compound: CO[C@H]1/C=C/O[C@@]2(C)Oc3c(C)c(O)c4c(=O)c(c5oc6cc(N7CCOC(CN(C)C)C7)cc(OCc7ccc(CN8CCOCC8)cc7)c6nc-5c4c3C2=O)NC(=O)/C(C)=C\C=C\[C@H](C)[C@H](O)[C@@H](C)[C@@H](O)[C@@H](C)[C@H](OC(C)=O)[C@@H]1C (stereo partly drawn) [Compound 17o, (7S,9E,11S,12R,13S,14R,15R,16R,17S,18S,19E,21Z)-30-{2-[(dimethylamino)methyl]morpholin-4-yl}-2,15,17-trihydroxy-11-methoxy-3,7,12,14,16,18,22-heptamethyl-32-{[4-(morpholin-4-ylmethyl)phenyl]methoxy}-6,23,37-trioxo-8,27,38-trioxa-24,34-diazahexacyclo[23.11.1.1^4,7.0^5,36.0^26,35.0^28,33]octatriaconta-1,3,5(36)9,19,21,25,28,30,32,34-undecaen-13-yl acetate]
- MIC90 LORA Rel to RMP [1]: 2.1
- MIC90 [1]: 0.106 µM
- MIC90 LORA/MABA [1]: 19
- MBC99 Day 7 (Lux Assay) MBC Rel to RMP [2]: 0.28
- MBC [2]: 0.128 µM

Compound: CO[C@H]1/C=C/O[C@@]2(C)Oc3c(C)c(O)c4c(=O)c(c5oc6cccc(OCc7cccc(CN8CCN(C(=O)Cc9ccccc9)CC8)c7)c6nc-5c4c3C2=O)NC(=O)/C(C)=C\C=C\[C@H](C)[C@H](O)[C@@H](C)[C@@H](O)[C@@H](C)[C@H](OC(C)=O)[C@@H]1C [Compound 11g, (7S,9E,11S,12R,13S,14R,15R,16R,17S,18S,19E,21Z)-2,15,17-Trihydroxy-11-methoxy-3,7,12,14,16,18,22-heptamethyl-6,23,37-trioxo-32-[(3-{[4-(2-phenylacetyl)-piperazin-1-yl]methyl}phenyl)methoxy]-8,27,38-trioxa-24,34-diazahexacyclo[23.11.1.1^4,7.0^5,36.0^26,35.0^28,33]octatriaconta-1(36)2,4,9,19,21,25,28,30,32,34-undecaen-13-yl acetate]
- MIC90 LORA Rel to RMP [1]: 1.1
- MIC90 [1]: 0.131 µM
- MIC90 LORA/MABA [1]: 12
- MBC99 Day 7 (Lux Assay) MBC Rel to RMP [2]: 0.06
- MBC [2]: 0.044 µM

Compound: CO[C@H]1/C=C/O[C@@]2(C)Oc3c(C)c(O)c4c(=O)c(c5oc6cc(N7CCCC(C(=O)Nc8ccc(Cl)cc8)C7)cc(C)c6nc-5c4c3C2=O)NC(=O)/C(C)=C\C=C\[C@H](C)[C@H](O)[C@@H](C)[C@@H](O)[C@@H](C)[C@H](OC(C)=O)[C@@H]1C (stereo partly drawn) [Compound 28, (7S,9E,11S,12R,13S,14R,15R,16R,17S,1S,19E,21Z)-30-{3-[(4-Chlorophenyl)carbamoyl]piperidin-1-yl}-2,15,17-trihydroxy-11-methoxy-3,7,12,14,16,18,22,32-octamethyl-6,23,37-trioxo-8,27,38-trioxa-24,34-diazahexacyclo[23.11.1.1^4,7.0^5,36.0^26,35.0^28,33]octatriaconta-1(36)2,4,9,19,21,25,28,30,32,34-undecaen-13-yl acetate]
- MIC90 LORA Rel to RMP [1]: 0.04
- MIC90 [1]: 0.0092 µM
- MIC90 LORA/MABA [1]: 2.1
- MBC99 Day 7 (Lux Assay) MBC Rel to RMP [2]: 0.05
- MBC [2]: 0.025 µM

Compound: CO[C@H]1/C=C/O[C@@]2(C)Oc3c(C)c(O)c4c(=O)c(c5oc6cc(N7CCN(C(=O)C(C)(C)C)CC7)cc(OCc7ccc(CN8CCOCC8)cc7)c6nc-5c4c3C2=O)NC(=O)/C(C)=C\C=C\[C@H](C)[C@H](O)[C@@H](C)[C@@H](O)[C@@H](C)[C@H](OC(C)=O)[C@@H]1C [Compound 17f, (7S,9E,11S,12R,13S,14R,15R,16R,17S,18S,19E,21Z)-30-[4-(2,2-Dimethylpropanoyl)-piperazin-1-yl]-2,15,17-trihydroxy-11-methoxy-3,7,12,14,16,18,22-heptamethyl-32-({4-[(morpholin-4-yl)methyl]phenyl}methoxy)-6,23,37-trioxo-8,27,38-trioxa-24,34-diazahexacyclo[23.11.1.1^4,7.0^5,36.0^26,35.0^28,33]octatriaconta-1(36)2,4,9,19,21,25,28,30,32,34-undecaen-13-yl acetate]
- MIC90 LORA Rel to RMP [1]: 1.8
- MIC [1]: 0.369 µM
- MIC90 LORA/MABA [1]: 14
- MBC [2]: > 0.1 µM

Compound: CO[C@H]1/C=C/O[C@@]2(C)Oc3c(C)c(O)c4c(=O)c(c5oc6cc(N7CCN(CC(=O)O)CC7)cc(OCc7ccc(CN8CCOCC8)cc7)c6nc-5c4c3C2=O)NC(=O)/C(C)=C\C=C\[C@H](C)[C@H](O)[C@@H](C)[C@@H](O)[C@@H](C)[C@H](OC(C)=O)[C@@H]1C [Compound 17i]
- MIC90 LORA Rel to RMP [1]: 9.2
- MIC [1]: 0.247 µM (≈ 0.28 µg/mL)
- MIC90 LORA/MABA [1]: 9.5
- MBC [2]: > 0.1 µM

Compound: CO[C@H]1/C=C/O[C@@]2(C)Oc3c(C)c(O)c4c(=O)c(c5oc6cccc(OCc7ccc(CN8CCN(C)CC8)cc7)c6nc-5c4c3C2=O)NC(=O)/C(C)=C\C=C\[C@H](C)[C@H](O)[C@@H](C)[C@@H](O)[C@@H](C)[C@H](OC(C)=O)[C@@H]1C [Compound 16e, (7S,9E,11S,12R,13S,14R,15R,16R,17S,18S,19E,21Z)-2,15,17-trihydroxy-11-methoxy-3,7,12,14,16,18,22-heptamethyl-32-({4-[(4-methylpiperazin-1-yl)methyl]phenyl}methoxy)-6,23,37-trioxo-8,27,38-trioxa-24,34-diazahexacyclo[23.11.1.1^4,7.0^5,36.0^26,35.0^28,33]octatriaconta-1,3,5(36)9,19,21,25,28,30,32,34-undecaen-13-yl acetate]
- MIC90 LORA Rel to RMP [1]: 1.3
- MIC90 [1]: 0.036 µM
- MIC90 LORA/MABA [1]: 5.6
- MBC99 Day 7 (Lux Assay) MBC Rel to RMP [2]: 0.14
- MBC [2]: 0.06 µM

Compound: CO[C@H]1/C=C/O[C@@]2(C)Oc3c(C)c(O)c4c(=O)c(c5oc6cc(N7CCC(C(=O)O)CC7)cc(OCc7ccc(CN8CCOCC8)cc7)c6nc-5c4c3C2=O)NC(=O)/C(C)=C\C=C\[C@H](C)[C@H](O)[C@@H](C)[C@@H](O)[C@@H](C)[C@H](OC(C)=O)[C@@H]1C [Compound 17k]
- MIC [1]: > 0.02 µM
- MBC [2]: > 0.1 µM

Compound: CO[C@H]1/C=C/O[C@@]2(C)Oc3c(C)c(O)c4c(=O)c(c5oc6cc(N7CCS(=O)(=O)CC7)cc(OCc7ccc(CN8CCOCC8)cc7)c6nc-5c4c3C2=O)NC(=O)/C(C)=C\C=C\[C@H](C)[C@H](O)[C@@H](C)[C@@H](O)[C@@H](C)[C@H](OC(C)=O)[C@@H]1C [Compound 17j, (7S,9E,11S,12R,13S,14R,15R,16R,17S,18S,19E,21Z)-30-(1,1-dioxothiomorpholin-4-yl)-2,15,17-trihydroxy-11-methoxy-3,7,12,14,16,18,22-heptamethyl-32-([4-(morpholin-4-ylmethyl)phenyl]methoxy)-6,23,37-trioxo-8,27,38-trioxa-24,34-diazahexacyclo-[23.11.1.1^4,7.0^5,36.0^26,35.0^28,33]octatriaconta-1,3,5(36)9,19,21,25,28,30,32,34-undecaen-13-yl acetate]
- MIC [1]: > 0.02 µM
- MBC [2]: > 0.1 µM

Compound: CO[C@H]1/C=C/O[C@@]2(C)Oc3c(C)c(O)c4c(=O)c(c5oc6cc(N7CCN(CCCCCCO[C@@H]8COc9nc([N+](=O)[O-])cn9C8)CC7)cc(C)c6nc-5c4c3C2=O)NC(=O)/C(C)=C\C=C\[C@H](C)[C@H](O)[C@@H](C)[C@@H](O)[C@@H](C)[C@H](OC(C)=O)[C@@H]1C [Compound 29e, (7S,9E,11S,12R,13S,14R,15R,16R,17S,18S,19E,21Z)-2,15,17-Trihydroxy-11-methoxy-3,7,12,14,16,18,22,32-octamethyl-30-[4-(6-{[(6S)-2-nitro-5H,6H,7H-imidazo[2,1-b][1,3]oxazin-6-yl]oxy}hexyl)piperazin-1-yl]-6,23,37-trioxo-8,27,38-trioxa-24,34-diazahexacyclo[23.11.1.1^4,7.0^5,36.0^26,35.0^28,33]octatriaconta-1(36)2,4,9,19,21,25,28,30,32,34-undecaen-13-yl acetate]
- MIC90 LORA Rel to RMP [1]: 0.03
- MIC90 [1]: 0.008 µM
- MIC90 LORA/MABA [1]: 4.0
- MBC99 Day 7 (Lux Assay) MBC Rel to RMP [2]: 0.11
- MBC [2]: 0.05 µM
